Measurements: ChEMBL document CHEMBL5316325, “Design and Synthesis of 3-Hydroxy-pyridin-4(1H)-ones-Ciprofloxacin Conjugates as Dual Antibacterial and Antibiofilm Agents against Pseudomonas aeruginosa” (J Med Chem, 2023)
Converted amounts (≈) assume the structure as drawn.

Experiments:
Format in all cases: functional
Pseudomonas aeruginosa [1] = experiment: Antibacterial activity against Pseudomonas aeruginosa 1121 in MHB medium assessed as bacterial growth inhibition by CLSI based broth microdilution method
Klebsiella pneumoniae = experiment: Antibacterial activity against Klebsiella pneumoniae ATCC 700603 in MHB medium assessed as bacterial growth inhibition by CLSI based broth microdilution method
Pseudomonas aeruginosa [2] = experiment: Antibacterial activity against Pseudomonas aeruginosa PAO1 in MHB medium assessed as bacterial growth inhibition by CLSI based broth microdilution method
Staphylococcus aureus [3] = experiment: Antibacterial activity against methicillin-resistant Staphylococcus aureus ATCC 515992 in MHB medium assessed as bacterial growth inhibition by CLSI based broth microdilution method
Pseudomonas aeruginosa [4] = experiment: Antibiofilm activity against Pseudomonas aeruginosa PAO1 in ABTGC medium assessed as biofilm biomass at 1/2 times MIC incubated for 24 hrs by crystal violet staining based assay relative to control
Pseudomonas aeruginosa [5] = experiment: Antibacterial activity against Pseudomonas aeruginosa 1129 in MHB medium assessed as bacterial growth inhibition by CLSI based broth microdilution method
Pseudomonas aeruginosa [6] = experiment: Antibacterial activity against Pseudomonas aeruginosa PAO1 in ABTGC medium assessed as bacterial growth inhibition
Pseudomonas aeruginosa [7] = experiment: Antibiofilm activity against Pseudomonas aeruginosa PAO1 in ABTGC medium assessed as biofilm biomass at 1/4 times MIC incubated for 24 hrs by crystal violet staining based assay relative to control
Pseudomonas aeruginosa [8] = experiment: Antibacterial activity against Pseudomonas aeruginosa ATCC 27853 in MHB medium assessed as bacterial growth inhibition by CLSI based broth microdilution method
Staphylococcus aureus [9] = experiment: Antibacterial activity against Staphylococcus aureus ATCC 25923 in MHB medium assessed as bacterial growth inhibition by CLSI based broth microdilution method
Pseudomonas aeruginosa [10] = experiment: Antibiofilm activity against Pseudomonas aeruginosa PAO1 in ABTGC medium assessed as biofilm biomass at MIC incubated for 24 hrs by crystal violet staining based assay relative to control
Pseudomonas aeruginosa [11] = experiment: Antibacterial activity against Pseudomonas aeruginosa FB in MHB medium assessed as bacterial growth inhibition by CLSI based broth microdilution method
Escherichia coli = experiment: Antibacterial activity against Escherichia coli ATCC 25922 in MHB medium assessed as bacterial growth inhibition by CLSI based broth microdilution method
Pseudomonas aeruginosa [12] = experiment: Antibacterial activity against Pseudomonas aeruginosa 1167 in MHB medium assessed as bacterial growth inhibition by CLSI based broth microdilution method

Row | Compound | MIC (Pseudomonas aeruginosa [1]) | MIC (Klebsiella pneumoniae) | MIC (Pseudomonas aeruginosa [2]) | MIC (Staphylococcus aureus [3]) | Activity (Pseudomonas aeruginosa [4]) | MIC (Pseudomonas aeruginosa [5]) | MIC (Pseudomonas aeruginosa [6]) | Activity (Pseudomonas aeruginosa [7]) | MIC (Pseudomonas aeruginosa [8]) | MIC (Staphylococcus aureus [9]) | Activity (Pseudomonas aeruginosa [10]) | MIC (Pseudomonas aeruginosa [11]) | MIC (Escherichia coli) | MIC (Pseudomonas aeruginosa [12])
1 | O=C(CCC(=O)N1CCN(c2cc3c(cc2F)c(=O)c(C(=O)O)cn3C2CC2)CC1)NCc1cc(=O)c(O)cn1O | 7.02 µM (≈ 4 µg/mL) | 14.1 µM (≈ 8 µg/mL) | 1.76 µM (≈ 1 µg/mL) | > 200 µM | 54.2% | 7.02 µM (≈ 4 µg/mL) | 14.1 µM (≈ 8 µg/mL) | 48.9% | 7.02 µM (≈ 4 µg/mL) | 28.1 µM (≈ 16 µg/mL) | 137% | 7.02 µM (≈ 4 µg/mL) | 0.22 µM (≈ 0.125 µg/mL) | 3.51 µM (≈ 2 µg/mL)
2 | Cc1cc(=O)c(O)c(CNC(=O)CCCC(=O)N2CCN(c3cc4c(cc3F)c(=O)c(C(=O)O)cn4C3CC3)CC2)n1C | 6.72 µM (≈ 4 µg/mL) | 26.9 µM (≈ 16 µg/mL) | 6.72 µM (≈ 4 µg/mL) | > 200 µM | 116.8% | 13.4 µM (≈ 8 µg/mL) | 128 µM (≈ 76.2 µg/mL) | 84.1% | 0.86 µM (≈ 0.512 µg/mL) | 53.7 µM (≈ 32 µg/mL) | 39.5% | 13.4 µM (≈ 8 µg/mL) | 0.21 µM (≈ 0.125 µg/mL) | 6.72 µM (≈ 4 µg/mL)
3 | Cc1cc(=O)c(O)c(CNC(=O)CCC(CCC(=O)NCc2c(O)c(=O)cc(C)n2C)(CCC(=O)NCc2c(O)c(=O)cc(C)n2C)NC(=O)CCCCC(=O)N2CCN(c3cc4c(cc3F)c(=O)c(C(=O)O)cn4C3CC3)CC2)n1C | 14 µM (≈ 16 µg/mL) | 14 µM (≈ 16 µg/mL) | 3.51 µM (≈ 4 µg/mL) | > 200 µM | 9.6% | 28.1 µM (≈ 32 µg/mL) | 56.2 µM (≈ 64 µg/mL) | 158.1% | 7.02 µM (≈ 8 µg/mL) | 14 µM (≈ 16 µg/mL) | 15.1% | 14 µM (≈ 16 µg/mL) | 0.22 µM (≈ 0.251 µg/mL) | 7.02 µM (≈ 8 µg/mL)
4 | Cc1cc(=O)c(O)c(CNC(=O)CCC(CCC(=O)NCc2c(O)c(=O)cc(C)n2C)(CCC(=O)NCc2c(O)c(=O)cc(C)n2C)NC(=O)CCC(=O)N2CCN(c3cc4c(cc3F)c(=O)c(C(=O)O)cn4C3CC3)CC2)n1C | 28.8 µM (≈ 32 µg/mL) | 14.4 µM (≈ 16 µg/mL) | 14.4 µM (≈ 16 µg/mL) | > 200 µM | 20.9% | 57.6 µM (≈ 64 µg/mL) | 115 µM (≈ 128 µg/mL) | 211.1% | 7.2 µM (≈ 8 µg/mL) | 14.4 µM (≈ 16 µg/mL) | 20.7% | 28.8 µM (≈ 32 µg/mL) | 0.22 µM (≈ 0.244 µg/mL) | 14.4 µM (≈ 16 µg/mL)
5 | Cc1cc(=O)c(O)c(CNC(=O)CCC(CCC(=O)NCc2c(O)c(=O)cc(C)n2C)(CCC(=O)NCc2c(O)c(=O)cc(C)n2C)NC(=O)CCCC(=O)N2CCN(c3cc4c(cc3F)c(=O)c(C(=O)O)cn4C3CC3)CC2)n1C | 3.55 µM (≈ 3.99 µg/mL) | 14.2 µM (≈ 16 µg/mL) | 1.78 µM (≈ 2 µg/mL) | > 200 µM | 79.3% | 7.11 µM (≈ 8 µg/mL) | 14.2 µM (≈ 16 µg/mL) | 26.1% | 7.11 µM (≈ 8 µg/mL) | 14.2 µM (≈ 16 µg/mL) | 12.7% | 3.55 µM (≈ 3.99 µg/mL) | 0.22 µM (≈ 0.248 µg/mL) | 1.78 µM (≈ 2 µg/mL)
6 | Cn1cc(O)c(=O)cc1CNC(=O)CCC(=O)N1CCN(c2cc3c(cc2F)c(=O)c(C(=O)O)cn3C2CC2)CC1 | 1.76 µM (≈ 0.999 µg/mL) | 3.52 µM (≈ 2 µg/mL) | 0.88 µM (≈ 0.499 µg/mL) | > 200 µM | 110.3% | 3.52 µM (≈ 2 µg/mL) | 7.05 µM (≈ 4 µg/mL) | 29.2% | 1.76 µM (≈ 0.999 µg/mL) | 7.05 µM (≈ 4 µg/mL) | 55.3% | 1.76 µM (≈ 0.999 µg/mL) | 0.06 µM (≈ 0.0341 µg/mL) | 0.88 µM (≈ 0.499 µg/mL)
7 | Cc1cc(=O)c(O)cn1CCCn1cc(CCC(=O)N2CCN(c3cc4c(cc3F)c(=O)c(C(=O)O)cn4C3CC3)CC2)nn1 | 103 µM (≈ 64 µg/mL) | > 200 µM | 103 µM (≈ 64 µg/mL) | > 200 µM | 127.7% | 103 µM (≈ 64 µg/mL) | > 200 µM | 97.6% | 103 µM (≈ 64 µg/mL) | > 200 µM | 71.7% | 103 µM (≈ 64 µg/mL) | 51.6 µM (≈ 32 µg/mL) | 103 µM (≈ 64 µg/mL)
